Laboratory results published in patent publication US4515766A, “Labeled phosphonic acid compositions for investigations of in vivo deposits of calcium” (priority 1982, dated 1985).

Experiments:
Toxic effects in rats = type: in vivo; details: 0.32 mg/300 gm
Text: (§1) Relative to a 70 kg person, this represents a safety factor of 74.7 and 112 respectively.

Toxic effects in mice = type: in vivo; details: 0.032 mg/20 gm
Text: as §1

Structure (SMILES): O=P(O)(O)C(O)(c1ccccc1)P(=O)(O)O [.PHI.PA]
- toxic effects observed (Toxic effects in rats): No toxic effects
- safety factor (Toxic effects in rats; rat, in vivo, read-out: safety factor relative to a 70 kg person): 74.7
- toxic effects observed (Toxic effects in mice): No toxic effects
- safety factor (Toxic effects in mice; mouse, in vivo, read-out: safety factor relative to a 70 kg person): 112
